Results from patent US9333211B2, “Phosphaplatin mediated modulation of pigment epithelial derived factor and uses thereof” (UNIVERSITY OF HOUSTON SYSTEM, priority 2013, dated 2016).
“Also recorded” adds a separate entry of the source.

Columns and labels:
PEDF gene [1] = assay: PEDF gene expression, Human angiogenesis PCR array (real-time PCR); format: cell-based; details: A2780 cells, 24 hr, ΔΔCT vs β-actin
Procedure: Human ovarian cancer cell lines, A2780 (Fox Chase) were cultured in 100 mm^3 plates in monolayer by using RPMI medium 1640 supplemented with 10% FBS, 2 mM glutamine, 0.25 units/mL insulin and penicillin/streptomycin (100 units/ml) in a 37° C. incubator continuously gassed with 5% CO2. The cells were treated with either RRD2 and RRD4, 5 μM and 13 μM, respectively, for 24 hrs in triplicate. The cells were collected by 0.025% trypsin-edta and were centrifuged. The pellet of cells was then resuspended in PBS and washed three times with PBS and pelleted. The total RNA isolated using the Qiagen RNeasy Mini kit (Qiagen Inc.) according to the handbook protocol. The quantity of RNA was measured spectrophotometrically at Absorbance 260 nm (1Abs260=40 ug/ml) and the quality of RNA A260:A280 ratio was measured between 1.8 to 2.0. For each experiment, 0.9 μg of total RNA was converted to cDNA using the RT^2 first strand kit (SABiosciences, Qiagen Inc.) and analyzed on the SABiosciences (Qiagen Inc.) PAHS-024C Human angiogenesis array with an Applied Biosciences 7900HT real-time PCR machine according to manufactures protocol. The threshold cycle (Ct) and baseline for each well was determined by instruments software and the resulting Ct values were analyzed using SABiosciences PCR Array Data Analysis Web-based Software (http://sabiosciences.com/pcrarraydataanalysis.php). β-Actin and/or GADPH were used as housekeeping gene for determining fold regulation.

PEDF gene [2] = assay: Individual PEDF gene expression, two step qRT-PCR; format: cell-based, human; details: A2780 cells, Single gene expression, endogenous control GADPH
Procedure: Individual Gene expression for PEDF was assessed by two step qRT-PCR assay. First, RNA isolation and purification was done as described above. A total of 2 μg total RNA was used to reverse-transcribe the template into single-stranded cDNA using RT^2 first strand kit (SABiosciences, Qiagen Inc.). In the second step, the synthesized cDNA was subjected to qRT-PCR RT^2 Primer Set (PEDF) used with SYBR Green real-time PCR master mix detection and endogenous control β-actin and/or GADPH (Applied Biosystems, Foster City, Calif.). All PCR reactions involving cDNA samples from treated and untreated cells were run in triplicate. Quantitative real-time PCR reactions were carried out on the StepOne PCR machine, 48 well system (Applied Biosystems, Foster City, Calif.) according to manufactures protocol. Results were generated using the StepOne software v2.1. The 2^−ΔΔCt method was used to present the relative differences in the mRNA expression levels.

PEDF protein [3] = assay: PEDF protein expression by immunofluorescence in A2780 cells; format: cell-based, human; details: for PEDF protein expression by immunofluorescence: 12 hour treatment; for PEDF overexpression, time dependence: 3 to 24 hr, 20 and 25 μM
Procedure: A 6-well plate containing pretreated cover slips was seeded with 500-1000 cells of A2780 human ovarian cancer cell lines in 2.5 ml of RPMI 1640 media (Lonza Walkersville, Frederick, Md.) containing 2.0 mM L-glutamine and supplemented with 10% heat inactivated fetal bovine serum, FBS (Hyclone, Logan, Utah), and 0.25 units/mL recombinant human insulin (Sigma Aldrich, St. Louis, Mo.), 100 U/ml penicillin-streptomycin (Lonza Walkersville, Frederick, Md.). Those cells reaching to 80% confluency were treated with phosphaplatin compounds, RRD2 and RRD4 at various time intervals (3, 6, 12, or 24 hours). Each of the cover slip was washed with PBS three times, and the cells were fixed with freshly prepared 4% paraformaldehyde at room temperature for 20 minutes. The fixed cells were then washed with PBS for three times. These cells were permeablized and blocked with 7.5% bovine serum albumin, BSA/PBS/0.01% triton-X100 at 37° C. for 60 minutes followed by washing the cells with PBS twice. The cover slips were treated with a 1:300 dilution of Pigment epithelium-derived factor (PEDF; also known as serpin F1, SERPINF1) mouse primary antibody (Cell Signalling Technology Inc., Danvers, Mass.) in 7.5% BSA/PBS/0.01% triton for 12-15 hours 37° C. and washed with PBS for three times. The coverslips were incubated with secondary Alexa Fluor 488-conjugated anti-mouse IgG (FITC-Green) (Invitrogen, Carlsbad, Calif.) at a 1:5000 dilution in 7.5% BSA/PBS/0.01% triton-X100 for 1 hour at 37° C. in the dark. The cover-slips were then washed with PBS for another three times. In addition, some treatments were stained for beta-Actin and was stained with Phalloidin (Rhodamine) (Red) (Invitrogen, Carlsbad, Calif.) (7 ul/ml) in 7.5% BSA/PBS/0.01% triton-X100 for 1 hour at 37° C. in the dark. The moist cover-slips were then mounted onto a microscope slide with Ultracruz mounting media containing DAPI (4′,6-diamidino-2-phenylindole) (Blue) (Santa Cruz Biotechnology, Santa Cruz, Calif.) (for identifying the nucleus) and images were then collected on an Olympus FV-1000 inverted stage confocal microscope using a Plan Apo N 60×1.42NA oil immersion objective and processed by FluoView software.

PEDF protein [4] = assay: PEDF protein expression by Western blot in A2780 cells; format: cell-based, human; details: 3 hrs, 6 hrs and 12 hrs treatment
Procedure: Treated human ovarian cancer cells (approximately 1×10^6 cells in 60 mm^3 plates at 80-90% confluence) line with 20 μM RRD2 and 25 μM RRD4 for 3, 6 and 12 hrs was washed with PBS for three times. Total protein was extracted by treating the washed cells directly with 200 μl of RIPA (Sigma, St. Louis, Mo.) or MPER (Pierce, USA). Protein extract samples (50 μg) were separated by 12% SDS-PAGE and blotted onto polyvinylidene difluoride (PVDF) membranes. The blots were washed with TBST [10 mM Tris-HCl (pH 7.6), 150 mM NaCl, 0.1% Tween-20], blocked with 5% skim milk and 1% BSA overnight at 4 C, and incubated with the mouse anit-PEDF (Santa Cruz Biotechnology, USA) primary antibody at 1:500 dilutions in TBST with 5% skim milk and 1% BSA overnight at 4° C. The membrane was then washed TBST, and the primary antibodies were detected with secondary antibody goat anti-mouse IgG conjugated to horseradish peroxidase at 1:2500 dilution for 1.5 hours at room temperature. The blots were developed with enhanced chemiluminescence (ECL) (Pierce, USA) and exposed to X-ray film.

HUVEC tube formation = assay: HUVEC tubulogenesis assay on Matrigel; format: cell-based, human; details: for neovascularization (tube formation) in HUVEC: after 30 min of treatment; for tube formation after treatment: HUVEC on Matrigel, 30 min treatment period
Procedure: Endothelial cell tubulogenesis assay was performed seeding 20,000 cells of HUVECs in 96-well plate that was pre-coated with 0.1% gelatin and 40 ul of Matrigel and treated with increasing concentration of phosphaplatin compounds, RRD2 and RRD4 in medium 199 (Lonza Walkersville, Frederick, Md.) supplemented with 20% heat-inactivated FBS (Hyclone, Logan, Utah), 100 μg/ml heparin (Sigma Aldrich, St. Louis, Mo.), 100 U/ml penicillin-streptomycin (Lonza Walkersville, Frederick, Md.) and endothelial mitogen (Biomedical Technologies, Stoughton, Mass.). In brief, Matrigel was defrosted overnight at 4° C. and the 0.1% gelatin coated 96 well plate was chilled and 40 μl of Matrigel was coated into each well. The plate was then incubated at 37° C. and 5% CO2 for 1 hour. The 96-well plate was seeded with 2×10^4 cells of HUVECs. After a 24 hour period of cell attachment each well was treated with the increasing concentration of Pt compounds overnight (8-10 hours) at 37° C. and 5% CO2. The capillary/tube formation structures formed were then recorded by an inverted microscope and quantified. Cells were counted in total visual area of 1.575 mm.
To further investigate the anti-angiogenetic behavior of RRD2 and RRD4 on endothelial cell tube formation, we treated HUVECs with different concentration of RRD2 and RRD4 (compounds A and D in FIG. 2) onto Matrigel. After 30 min of incubation with tube-like structures were monitored with an inverted microscope at 40× magnification.

ARPE19 cells = assay: CellTiter-Glo Luminescent Cell Viability Assay; format: cell-based, human; details: 100 μM, 24 hours of treatment
Procedure: Promega's CellTiter-Glo® Luminescent Cell Viability Assay was used to determine the number of viable cells in a culture by quantification of ATP (Promega. Madison, Wis.). Briefly, ARPE19 cells, a normal human retinal pigment epithelial cell line, were seeded in a 96 well plate with 10,000-30,000 cells per well and were allowed to attach for 24 hours. Thereafter, the cells were treated with RRD2 or RRD4 at different concentrations ranging from 1 to 100 μM for 24 hours. The detection reagent was prepared per manufactures protocol and equal volume of CellTiter-Glo® reagent was added to each well of cell culture and luminescence read with integration time set for 0.25 to 1 second. The Glo titer Viability Assay has a linear range is from 0 to 50,000 cells per well. Each concentration was done in triplicate.

| Compound | Fold change expression of PEDF (PEDF gene [1]; 13 uM) [fold] | Fold change expression of PEDF (PEDF gene [2]; 25 uM, 3 hr) [fold] | Fold change expression of PEDF (PEDF gene [2]; 50 uM, 24 hr) [fold] | PEDF protein expression by immunofluorescence (PEDF protein [3]; A2780, 25 μM) | PEDF overexpression, time dependence (PEDF protein [3]; human ovarian cells) | PEDF protein expression by Western Blotting (PEDF protein [4]; A2780, 25 μM) | neovascularization (tube formation) in HUVEC (HUVEC tube formation; 10 μM) | tube formation after treatment (HUVEC tube formation) | effect on viability of ARPE19 retinal cells (ARPE19 cells) | Fold change expression of PEDF (PEDF gene [1]; 5 uM) [fold] | Fold change expression of PEDF (PEDF gene [1]; 20 uM) [fold] | PEDF protein expression by immunofluorescence (PEDF protein [3]; A2780, 20 μM) | treatment time of maximum PEDF protein expression (PEDF protein [3]; immune-fluorescence experiments, human ovarian cells) [h] | PEDF protein expression by Western Blotting (PEDF protein [4]; A2780, 20 μM) | inhibition of HUVEC tube formation on Matrigel (HUVEC tube formation; 0.5 μM, 30 min incubation) | neovascularization (tube formation) in HUVEC (HUVEC tube formation; 1 μM) |
| --- | --- | --- | --- | --- | --- | --- | --- | --- | --- | --- | --- | --- | --- | --- | --- | --- |
| NC1CCCCC1N.O=P1(O)OP(=O)(O)[O][Pt]([OH])([OH])[O]1 [RRD4, R,R-trans-1,2-cyclohexane-diamine-trans-dihydroxo(dihydrogenpyrophospahto) platinum(IV)] | 2.05 | 2.1 | 4.1 | overexpression; also recorded: overexpressed or upregulated | time dependent overexpression | overexpression; also recorded: upregulated | inhibition | No tube formation was evident | no effect | – | – | – | – | – | – | – |
| NC1CCCCC1N.O=P1(O)[O][Pt][O]P(=O)(O)O1 [RRD2, R,R-trans-1,2-cyclohexane-diamine (dihydrogen pyrophospahto)platinum(II)] | – | – | – | – | time dependent overexpression | – | – | No tube formation was evident | no effect | 2.64 | 5.79 | overexpression; also recorded: overexpressed or upregulated | 12 | overexpression; also recorded: upregulated | more than 85% | inhibition |
